Earlier results on one compound are cited in patent US10751314B2, “Compositions comprising rumenic acid-rich conjugated linoleic acid for joint health” (STEPAN SPECIALTY PRODUCTS, LLC, priority 2016, dated 2020).

Structures are written as SMILES.

Data set [1] relates to young men and women with birch pollen allergy. The note with it: 8 weeks of supplementation.
The subject of a further data set is human epithelial cells. The note with it: via activation of PPARγ.
The subject of another data set is PPARγ. Conditions: mouse macrophage cells.

As to `CCCCCC/C=C/C=C\CCCCCCCC(=O)O` [RA, cis-9, trans-11 linoleic acid], the “Allergic responses mediated by inflammation” value in data set [1] is “reduced”. Further, the Inflammatory responses result in the data set on human epithelial cells is “reduced inflammatory responses”. For the same compound, in the data set with PPARγ, the Antioxidant activity entry is given as “served as an antioxidant” and the PPARγ activation entry was “activated”.
